Earlier results in US20140271772A1, “BIODEGRADABLE SUBCUTANEOUS IMPLANTS AND METHODS OF MAKING” (priority 2013, published 2014).

Q: For Nc1nc2c(ncn2COCCO)c(=O)[nH]1 [acyclovir], which oral bioavailability is on record?
A: 10-30%

Q: What about the toxicity to cats (cats) of the same compound?
A: toxic to cats
